Literature values as cited in patent EP2939710B1, “Active Mixtures” (Symrise AG, priority 2014, dated 2015).

Settings: water (20° dH) at 20 °C, solid active agent

- solubility in water: less than 5 g/L
SMILES: Nc1nc2c(ncn2COCCO)c(=O)[nH]1 [Acyclovir, 2-Amino-1,9-dihydro-9-((2-hydroxyethoxy)methyl)-6H-Purin-6-one]
